How the values were obtained:
[1] = system: KG-1 cell line (FGFR 1-fusion); test: Cancer cell line cell viability assay (Cell Titer-Glo), 72 hr; assay type: cell-based; conditions: Homo sapiens
Summary of the method: (§1)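 Cells seeded at 5,000-20,000/well, incubated overnight, then treated with a 9-dose, 4-fold dilution series from 3 μM in triplicate at 37° C, 5% CO2. Viability read by Cell Titer-Glo 2.0 luminescence as percent of DMSO control; IC50 from 4-parameter variable-slope sigmoidal fit.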

[2] = system: RT112/84 cell line (FGFR3-fusion); test: as above; assay type: cell-based; conditions: Homo sapiens
Summary of the method: as §1

[3] = system: KATO-III cell line (FGFR2 amplification); test: as above; assay type: cell-based; conditions: Homo sapiens
Summary of the method: as §1

FGFR2 = target: T1, FGFR2 (Homo sapiens, UniProt P21802); test: Kinase binding assay (kinase-tagged T7 phage, affinity beads, qPCR), Kd; conditions: read-out: FGFR2 (Kd nM)
T1 construct: made in house; host or cells: E. coli (BL21-derived), T7 phage
T1 sequence (P21802 22-821): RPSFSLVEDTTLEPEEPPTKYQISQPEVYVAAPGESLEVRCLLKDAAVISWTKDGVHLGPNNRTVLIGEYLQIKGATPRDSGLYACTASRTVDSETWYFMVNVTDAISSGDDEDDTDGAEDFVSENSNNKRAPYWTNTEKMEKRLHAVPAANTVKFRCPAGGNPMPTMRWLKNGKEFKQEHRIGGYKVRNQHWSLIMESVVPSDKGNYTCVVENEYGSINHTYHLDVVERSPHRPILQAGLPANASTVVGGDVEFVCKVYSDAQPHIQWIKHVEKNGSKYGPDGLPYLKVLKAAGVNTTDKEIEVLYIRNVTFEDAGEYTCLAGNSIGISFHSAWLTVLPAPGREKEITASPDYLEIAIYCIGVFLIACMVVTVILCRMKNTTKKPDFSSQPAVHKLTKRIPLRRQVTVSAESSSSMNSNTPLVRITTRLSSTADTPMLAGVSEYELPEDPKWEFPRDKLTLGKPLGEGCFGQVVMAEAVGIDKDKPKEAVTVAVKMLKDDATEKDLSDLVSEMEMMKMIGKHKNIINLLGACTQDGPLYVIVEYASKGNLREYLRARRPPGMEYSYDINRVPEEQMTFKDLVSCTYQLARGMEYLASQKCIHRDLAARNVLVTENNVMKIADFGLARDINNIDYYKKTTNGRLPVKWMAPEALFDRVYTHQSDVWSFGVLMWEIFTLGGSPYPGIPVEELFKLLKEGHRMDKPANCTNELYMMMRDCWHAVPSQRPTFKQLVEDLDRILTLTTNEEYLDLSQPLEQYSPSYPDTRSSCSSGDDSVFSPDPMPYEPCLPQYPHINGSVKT
Summary of the method: (§2)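 Kd obtained by Levenberg–Marquardt Hill-equation fit (slope −1) to qPCR-measured kinase retained on ligand-coated streptavidin beads.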

FGFR3 (V555M) = target: T2, FGFR3 (V555M) (Homo sapiens, UniProt P22607, V555M); test: as above; conditions: V555M mutant; read-out: FGFR3 (V555M) (Kd nM)
T2 construct: made in house; host or cells: E. coli (BL21-derived), T7 phage
T2 sequence (P22607 23-806 V555M): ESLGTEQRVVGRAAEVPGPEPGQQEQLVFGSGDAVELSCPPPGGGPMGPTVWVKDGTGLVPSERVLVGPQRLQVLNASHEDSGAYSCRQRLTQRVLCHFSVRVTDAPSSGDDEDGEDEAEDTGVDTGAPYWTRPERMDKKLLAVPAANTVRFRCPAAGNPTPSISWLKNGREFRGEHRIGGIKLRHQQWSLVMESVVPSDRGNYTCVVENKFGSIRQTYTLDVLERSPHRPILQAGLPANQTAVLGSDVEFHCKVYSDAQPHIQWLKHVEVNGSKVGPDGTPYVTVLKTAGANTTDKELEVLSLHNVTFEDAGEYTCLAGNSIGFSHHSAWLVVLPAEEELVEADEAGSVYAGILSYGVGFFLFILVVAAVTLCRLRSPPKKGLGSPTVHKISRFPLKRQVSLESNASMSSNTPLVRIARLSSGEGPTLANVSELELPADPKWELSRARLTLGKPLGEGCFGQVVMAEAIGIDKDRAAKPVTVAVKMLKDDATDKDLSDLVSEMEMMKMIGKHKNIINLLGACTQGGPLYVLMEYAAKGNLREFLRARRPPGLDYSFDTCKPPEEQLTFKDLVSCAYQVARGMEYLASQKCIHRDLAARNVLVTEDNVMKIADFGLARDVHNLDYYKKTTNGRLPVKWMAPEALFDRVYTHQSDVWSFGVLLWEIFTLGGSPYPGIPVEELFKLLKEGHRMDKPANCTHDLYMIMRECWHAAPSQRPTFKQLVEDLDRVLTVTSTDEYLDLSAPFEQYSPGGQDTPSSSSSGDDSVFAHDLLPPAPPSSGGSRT
Summary of the method: as §2

FGFR1 = target: T3, FGFR1 (Homo sapiens, UniProt P11362); test: as above; conditions: read-out: FGFR1 (Kd nM)
T3 construct: made in house; host or cells: E. coli (BL21-derived), T7 phage
T3 sequence (P11362 22-822): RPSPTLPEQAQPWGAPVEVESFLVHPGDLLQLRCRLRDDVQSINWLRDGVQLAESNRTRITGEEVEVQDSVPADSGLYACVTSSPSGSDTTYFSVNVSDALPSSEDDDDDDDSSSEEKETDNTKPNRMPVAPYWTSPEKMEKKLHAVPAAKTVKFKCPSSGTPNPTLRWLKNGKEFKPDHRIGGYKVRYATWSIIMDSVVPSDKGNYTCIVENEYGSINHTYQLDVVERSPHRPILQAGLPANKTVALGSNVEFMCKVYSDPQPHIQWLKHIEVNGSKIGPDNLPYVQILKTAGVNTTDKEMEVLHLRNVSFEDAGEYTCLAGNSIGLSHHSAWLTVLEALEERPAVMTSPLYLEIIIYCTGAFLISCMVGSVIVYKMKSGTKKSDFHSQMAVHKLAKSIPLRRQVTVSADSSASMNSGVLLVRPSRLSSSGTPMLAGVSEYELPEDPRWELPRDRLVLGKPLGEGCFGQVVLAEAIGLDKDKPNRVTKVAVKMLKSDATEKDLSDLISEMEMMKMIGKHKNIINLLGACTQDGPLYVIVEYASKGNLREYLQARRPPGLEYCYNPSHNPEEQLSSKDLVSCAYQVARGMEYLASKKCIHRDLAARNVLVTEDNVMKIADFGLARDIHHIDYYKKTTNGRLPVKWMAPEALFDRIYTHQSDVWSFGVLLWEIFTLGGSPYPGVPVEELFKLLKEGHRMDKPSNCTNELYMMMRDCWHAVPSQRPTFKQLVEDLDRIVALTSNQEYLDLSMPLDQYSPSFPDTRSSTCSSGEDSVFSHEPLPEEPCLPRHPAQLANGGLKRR
Summary of the method: as §2

FGFR3 = target: T4, FGFR3 (Homo sapiens, UniProt P22607); test: as above; conditions: read-out: FGFR3 (Kd nM)
T4 construct: made in house; host or cells: E. coli (BL21-derived), T7 phage
T4 sequence (P22607 23-806): as the sequence (P22607 23-806 V555M) above, with M533V counted along it
Summary of the method: as §2

FGFR4 = target: T5, FGFR4 (Homo sapiens, UniProt P22455); test: as above; conditions: read-out: FGFR4 (Kd nM)
T5 construct: made in house; host or cells: E. coli (BL21-derived), T7 phage
T5 sequence (P22455 22-802): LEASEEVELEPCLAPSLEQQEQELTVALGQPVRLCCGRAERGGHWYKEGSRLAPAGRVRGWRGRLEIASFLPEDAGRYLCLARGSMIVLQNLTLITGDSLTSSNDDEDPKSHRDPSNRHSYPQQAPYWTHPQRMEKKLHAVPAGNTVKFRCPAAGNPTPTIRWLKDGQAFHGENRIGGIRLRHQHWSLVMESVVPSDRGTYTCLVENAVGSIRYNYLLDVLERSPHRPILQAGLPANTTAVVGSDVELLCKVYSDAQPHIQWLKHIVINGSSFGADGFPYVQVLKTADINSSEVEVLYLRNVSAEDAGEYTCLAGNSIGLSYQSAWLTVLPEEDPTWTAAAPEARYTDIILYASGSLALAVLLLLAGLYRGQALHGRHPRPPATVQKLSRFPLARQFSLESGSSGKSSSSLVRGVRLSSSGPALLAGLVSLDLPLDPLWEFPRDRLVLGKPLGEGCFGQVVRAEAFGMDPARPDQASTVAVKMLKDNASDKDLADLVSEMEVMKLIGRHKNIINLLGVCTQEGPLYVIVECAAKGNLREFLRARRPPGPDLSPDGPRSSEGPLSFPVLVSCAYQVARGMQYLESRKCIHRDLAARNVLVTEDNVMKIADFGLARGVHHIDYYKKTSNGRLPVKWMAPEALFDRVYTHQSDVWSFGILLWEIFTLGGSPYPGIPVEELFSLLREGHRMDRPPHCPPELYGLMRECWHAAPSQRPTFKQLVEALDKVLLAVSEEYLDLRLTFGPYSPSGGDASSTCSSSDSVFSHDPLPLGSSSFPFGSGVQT
Summary of the method: as §2

[4] = KG-1, KG-1 cell line (FGFR1-fusion)
[5] = RT112/84, RT112/84 cell line (FGFR3-fusion)

Structure (SMILES)	Kd (FGFR2) [nM]	Kd (FGFR3 (V555M)) [nM]	Kd (FGFR1) [nM]	Kd (FGFR3) [nM]	Kd (FGFR4) [nM]	IC50 [1, 4] [nM]	IC50 [2, 5] [nM]	IC50 ([3]; KATO III) [nM]	IC50 ([1]; KG-1 cell line (FGFR1-fusion)) [nM]	IC50 ([2]; RT112/84 cell line (FGFR3-fusion)) [nM]	IC50 [3] [nM]
COP(=O)(CC1(C)CN(c2ccc(-c3n[nH]c4ccc(O[C@H](C)c5c(Cl)cncc5Cl)cc34)cn2)C1)OC [Example 214, (R)-dimethyl ((1-(5-(5-(1-(3,5-dichloropyridin-4-yl)ethoxy)-1H-indazol-3-yl)pyridin-2-yl)-3-methylazetidin-3-yl)methyl)phosphonate]	1 to 50	1 to 50	1 to 50	1 to 50	1 to 50	–	–	–	50 to 200	0.1 to 50	0.1 to 50
Cc1ncc(Cl)c([C@@H](C)Oc2ccc3[nH]nc(-c4ccc(N5CC(C)(NC6COC6)C5)nc4)c3c2)c1Cl [Example 70, 1-[5-[5-[(1R)-1-(3,5-dichloro-2-methyl-4-pyridyl)ethoxy]-1H-indazol-3-yl]-2-pyridyl]-3-methyl-N-(oxetan-3-yl)azetidin-3-amine]	1 to 50	1 to 50	1 to 50	1 to 50	1 to 50	50 to 200	0.1 to 50	0.1 to 50	–	–	–
C[C@@H](Oc1ccc2[nH]nc(-c3ccc(N4CC(C)(NC(=O)CN(C)C)C4)nc3)c2c1)c1c(Cl)cncc1Cl [Example 95, (R)-N-(1-(5-(5-(1-(3,5-dichloropyridin-4-yl)ethoxy)-1H-indazol-3-yl)pyridin-2-yl)-3-methylazetidin-3-yl)-2-(dimethylamino)acetamide]	1 to 50	1 to 50	1 to 50	1 to 50	1 to 50	0.1 to 50	0.1 to 50	0.1 to 50	–	–	–
C[C@@H](Oc1ccc2[nH]nc(-c3cnc(N4CC(C)(N5CC6CC(C5)O6)C4)c(F)c3)c2c1)c1c(Cl)cncc1Cl [Example 217, 3-(1-(5-(5-((R)-1-(3,5-dichloropyridin-4-yl)ethoxy)-1H-indazol-3-yl)-3-fluoropyridin-2-yl)-3-methylazetidin-3-yl)-6-oxa-3-aza-bicyclo[3.1.1]hep-tane]	1 to 50	1 to 50	1 to 50	1 to 50	1 to 50	50 to 200	0.1 to 50	0.1 to 50	–	–	–
C[C@@H](Oc1ccc2[nH]nc(-c3ccc(N4CC(C)(NC5CCC5)C4)nc3)c2c1)c1c(Cl)cncc1Cl [Example 63, (R)-N-cyclobutyl-1-(5-(5-(1-(3,5-dichloropyridin-4-yl)ethoxy)-1H-indazol-3-yl)pyridin-2-yl)-3-methylazetidin-3-amine]	1 to 50	1 to 50	1 to 50	1 to 50	1 to 50	50 to 200	0.1 to 50	0.1 to 50	–	–	–
C[C@@H](Oc1cc2c(-c3cnc(N4CC5(CC5)C4)nc3)n[nH]c2cc1F)c1c(Cl)cncc1Cl [Example 60, 3-[2-(5-azaspiro[2.3]hexan-5-yl)pyrimidin-5-yl]-5-[(1R)-1-(3,5-dichloro-4-pyridyl)ethoxy]-6-fluoro-1H-indazole]	300 to 1000	1 to 50	50 to 300	1 to 50	1 to 50	> 1000	50 to 200	> 1000	–	–	–
COc1cc2[nH]nc(-c3ccc(N4CC(C)(N[C@H]5CCOC5)C4)nc3)c2cc1O[C@H](C)c1c(Cl)cncc1Cl [Example 66, 1-(5-(5-((R)-1-(3,5-dichloropyridin-4-yl)ethoxy)-6-methoxy-1H-indazol-3-yl)pyridin-2-yl)-3-methyl-N-((S)-tetrahydrofuran-3-yl)azetidin-3-amine]	1 to 50	1 to 50	1 to 50	1 to 50	1 to 50	0.1 to 50	0.1 to 50	0.1 to 50	–	–	–

Second part, led by results:

Kd (FGFR2) [nM]	Kd (FGFR3 (V555M)) [nM]	Kd (FGFR1) [nM]	Kd (FGFR3) [nM]	Kd (FGFR4) [nM]	IC50 [1, 4] [nM]	IC50 [2, 5] [nM]	IC50 ([3]; KATO III) [nM]	Structure (SMILES)	IC50 ([1]; KG-1 cell line (FGFR1-fusion)) [nM]	IC50 ([2]; RT112/84 cell line (FGFR3-fusion)) [nM]	IC50 [3] [nM]
1 to 50	1 to 50	1 to 50	1 to 50	1 to 50	50 to 200	0.1 to 50	50 to 200	CC(C)NC1(C)CN(c2ncc(-c3n[nH]c4cc(F)c(O[C@H](C)c5c(Cl)cncc5Cl)cc34)cc2F)C1 [Example 127, (R)-1-(5-(5-(1-(3,5-dichloropyridin-4-yl)ethoxy)-6-fluoro-1H-indazol-3-yl)-3-fluoropyridin-2-yl)-N-isopropyl-3-methylazetidin-3-amine]	–	–	–
1 to 50	1 to 50	1 to 50	1 to 50	1 to 50	50 to 200	0.1 to 50	0.1 to 50	COC1(C)CN(C2(C)CN(c3ncc(-c4n[nH]c5ccc(O[C@H](C)c6c(Cl)cncc6Cl)cc45)cc3F)C2)C1 [Example 97, (R)-5-(1-(3,5-dichloropyridin-4-yl)ethoxy)-3-(5-fluoro-6-(3-methoxy-3,3′-dimethyl-[1,3′-biazetidin]-1′-yl)pyridin-3-yl)-1H-indazole]	–	–	–
1 to 50	1 to 50	1 to 50	1 to 50	1 to 50	0.1 to 50	0.1 to 50	0.1 to 50	C[C@@H](Oc1ccc2[nH]nc(-c3cnc(N4CC(C)(NCC5(O)CC5)C4)c(F)c3)c2c1)c1c(Cl)cncc1Cl [Example 118, (R)-1-(((1-(5-(5-(1-(3,5-dichloropyridin-4-yl)ethoxy)-1H-indazol-3-yl)-3-fluoropyridin-2-yl)-3-methylazetidin-3-yl)amino)methyl)cyclo-propan-1-ol]	–	–	–
1 to 50	1 to 50	1 to 50	1 to 50	1 to 50	200 to 1000	0.1 to 50	50 to 200	C[C@@H]1CN(C2(C)CN(c3ncc(-c4n[nH]c5ccc(O[C@H](C)c6c(Cl)cncc6Cl)cc45)cc3F)C2)CCO1 [Example 213, (R)-4-(1-(5-(5-((R)-1-(3,5-dichloropyridin-4-yl)ethoxy)-1H-indazol-3-yl)-3-fluoropyridin-2-yl)-3-methylazetidin-3-yl)-2-methylmorpholine]	–	–	–
1 to 50	1 to 50	1 to 50	1 to 50	1 to 50	50 to 200	0.1 to 50	50 to 200	C[C@@H](Oc1ccc2[nH]nc(-c3cnc(N4CC(C)(CN5CCOCC5)C4)c(F)c3)c2c1)c1c(Cl)cncc1Cl [Example 109, (R)-4-((1-(5-(5-(1-(3,5-dichloropyridin-4-yl)ethoxy)-1H-indazol-3-yl)-3-fluoropyridin-2-yl)-3-methylazetidin-3-yl)methyl)morpholine]	–	–	–
1 to 50	1 to 50	1 to 50	1 to 50	1 to 50	50 to 200	0.1 to 50	0.1 to 50	C[C@@H](Oc1cc2c(-c3cnc(N4CC(C)(N5CCOCC5)C4)c(F)c3)n[nH]c2cc1F)c1c(Cl)cncc1Cl [Example 158, (R)-4-(1-(5-(5-(1-(3,5-Dichloropyridin-4-yl)ethoxy)-6-fluoro-1H-indazol-3-yl)-3-fluoropyridin-2-yl)-3-methylazetidin-3-yl)morpholine]	–	–	–
1 to 50	1 to 50	1 to 50	1 to 50	1 to 50	50 to 200	0.1 to 50	50 to 200	CC(C)NC1(C)CN(c2ncc(-c3n[nH]c4ccc(O[C@H](C)c5c(Cl)cncc5Cl)cc34)cc2F)C1 [Example 117, (R)-1-(5-(5-(1-(3,5-dichloropyridin-4-yl)ethoxy)-1H-indazol-3-yl)-3-fluoropyridin-2-yl)-N-isopropyl-3-methylazetidin-3-amine]	–	–	–
1 to 50	1 to 50	1 to 50	1 to 50	1 to 50	0.1 to 50	0.1 to 50	0.1 to 50	C[C@@H](Oc1ccc2[nH]nc(-c3ccc(N4CC(C)(NC5COC5)C4)nc3)c2c1)c1c(Cl)cncc1Cl [Example 64, (R)-1-(5-(5-(1-(3,5-dichloropyridin-4-yl)ethoxy)-1H-indazol-3-yl)pyridin-2-yl)-3-methyl-N-(oxetan-3-yl)azetidin-3-amine]	–	–	–
1 to 50	1 to 50	1 to 50	1 to 50	1 to 50	0.1 to 50	0.1 to 50	0.1 to 50	COc1cc2[nH]nc(-c3cnc(N4CC(C)(NC[C@@H](C)O)C4)c(F)c3)c2cc1O[C@H](C)c1c(Cl)cncc1Cl [Example 161, (R)-1-((1-(5-(5-((R)-1-(3,5-dichloropyridin-4-yl)ethoxy)-6-methoxy-1H-indazol-3-yl)-3-fluoropyridin-2-yl)-3-methylazetidin-3-yl)amino)propan-2-ol]	–	–	–

Source: US20250368666A1, “INDAZOLE COMPOUNDS” (TYRA BIOSCIENCES, INC., priority 2022, published 2025)
